Reference: ChEMBL document CHEMBL1221208, “ATP-competitive inhibitors of the mitotic kinesin KSP that function via an allosteric mechanism” (Nat Chem Biol, 2007)
The source made the active and inactive calls. No cut-off for these calls is given here.

Legend:
[1] = target: T1, Kinesin-like protein KIF11 (Homo sapiens, UniProt P52732); assay: Inhibition of human wild type Eg5 using varying ATP levels in presence of saturating levels of microtubule by Lineweaver-Burke plot
T1 sequence (P52732 whole entry): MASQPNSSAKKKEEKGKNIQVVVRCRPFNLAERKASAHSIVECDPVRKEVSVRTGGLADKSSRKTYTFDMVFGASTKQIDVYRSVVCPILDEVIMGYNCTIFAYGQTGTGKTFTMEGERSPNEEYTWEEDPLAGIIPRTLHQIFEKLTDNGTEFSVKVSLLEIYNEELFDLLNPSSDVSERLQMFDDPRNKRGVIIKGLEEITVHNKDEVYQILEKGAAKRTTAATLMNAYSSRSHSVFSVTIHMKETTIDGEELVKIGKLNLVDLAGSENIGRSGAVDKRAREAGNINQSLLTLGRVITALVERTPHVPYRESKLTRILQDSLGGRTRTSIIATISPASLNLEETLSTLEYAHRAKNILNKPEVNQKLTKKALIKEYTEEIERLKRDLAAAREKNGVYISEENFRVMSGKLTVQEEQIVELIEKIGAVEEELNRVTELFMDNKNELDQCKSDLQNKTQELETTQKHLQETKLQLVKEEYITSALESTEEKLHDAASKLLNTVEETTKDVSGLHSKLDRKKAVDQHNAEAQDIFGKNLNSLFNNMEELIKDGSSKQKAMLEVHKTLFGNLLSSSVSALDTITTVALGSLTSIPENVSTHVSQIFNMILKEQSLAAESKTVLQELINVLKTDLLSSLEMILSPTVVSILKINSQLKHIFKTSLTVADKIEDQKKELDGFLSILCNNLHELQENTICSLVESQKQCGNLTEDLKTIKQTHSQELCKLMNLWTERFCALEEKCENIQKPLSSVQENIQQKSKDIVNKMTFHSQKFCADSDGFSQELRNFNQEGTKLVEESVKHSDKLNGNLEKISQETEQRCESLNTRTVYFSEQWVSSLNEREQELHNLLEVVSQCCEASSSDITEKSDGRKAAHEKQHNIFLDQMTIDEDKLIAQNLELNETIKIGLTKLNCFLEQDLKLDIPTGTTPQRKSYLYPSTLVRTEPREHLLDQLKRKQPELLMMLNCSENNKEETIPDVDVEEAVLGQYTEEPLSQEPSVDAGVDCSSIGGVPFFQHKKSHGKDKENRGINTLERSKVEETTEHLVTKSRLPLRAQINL

[2] = target: T2, Kinesin-like protein KIF2C (Homo sapiens) (UniProt Q99661); assay: Inhibition of MCAK at 10 uM by puruvate kinsase-lactate dehydrogenase detection system
T2 sequence (whole entry): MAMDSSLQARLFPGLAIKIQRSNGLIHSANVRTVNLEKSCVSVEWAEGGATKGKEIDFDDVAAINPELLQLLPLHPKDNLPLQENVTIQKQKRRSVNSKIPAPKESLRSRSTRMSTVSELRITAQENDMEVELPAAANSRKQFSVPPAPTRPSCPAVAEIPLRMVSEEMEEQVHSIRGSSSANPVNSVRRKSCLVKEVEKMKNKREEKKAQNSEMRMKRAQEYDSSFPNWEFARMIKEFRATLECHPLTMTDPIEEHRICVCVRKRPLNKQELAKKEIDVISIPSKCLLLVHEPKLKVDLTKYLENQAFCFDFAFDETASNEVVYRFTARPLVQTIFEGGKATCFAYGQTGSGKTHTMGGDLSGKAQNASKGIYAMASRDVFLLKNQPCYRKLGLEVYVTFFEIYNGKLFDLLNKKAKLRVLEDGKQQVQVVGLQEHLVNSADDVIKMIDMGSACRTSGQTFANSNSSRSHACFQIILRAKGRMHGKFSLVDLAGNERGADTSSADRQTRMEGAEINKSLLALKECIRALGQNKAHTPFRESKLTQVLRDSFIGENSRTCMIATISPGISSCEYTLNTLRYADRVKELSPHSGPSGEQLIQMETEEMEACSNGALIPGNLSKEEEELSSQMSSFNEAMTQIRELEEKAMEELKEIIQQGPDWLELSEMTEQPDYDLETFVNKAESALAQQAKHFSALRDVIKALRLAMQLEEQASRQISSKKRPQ

[3] = target: T3, Kinesin-like protein KIF11 (Homo sapiens) (UniProt P52732); assay: Inhibition of Eg5 at 10 uM by puruvate kinsase-lactate dehydrogenase detection system
T3 sequence (whole entry): T1 sequence (P52732 whole entry)

[4] = Inhibition of human KSP KHC-L5 mutant using varying ATP levels in presence of saturating levels of microtubule by Lineweaver-Burke plot
Homo sapiens = species on record: Homo sapiens; assay: Competitive inhibition of human KSP KHC-L5 mutant with respect to ATP using varying ATP levels in presence of saturating levels of microtubule by Lineweaver-Burke plot

Row | Ki [1] | inhibition [2] | inhibition [3] | Ki [4] | inhibition (Homo sapiens) | SMILES
1 | 8.8 nM | 6.9% | 99.4% | 6 nM | Active | NC(=O)Nc1ccc(-c2ccc(C(F)(F)F)cc2)cc1F
2 | 1.8 nM | 8.4% | 99.3% | 2.1 nM | Active | O=C1CCc2cc(-c3ccc(C(F)(F)F)cc3)ccc2N1
3 | – | 8.2% | 99.6% | – | – | Cc1ccc(C(=O)N(CCCN)[C@@H](c2nc3cc(Cl)ccc3c(=O)n2Cc2ccccc2)C(C)C)cc1
